Measured values reported in publication PMC7949139, “The molecular basis of OH-PCB estrogen receptor activation” (The Journal of Biological Chemistry, 2021).
Read-outs that look alike come from different tables or passages of the source. Marks after values point to notes of the source that are not given here.

Assays:
SULT1E1 [1] = molecular target: T1, SULT1E1 (Homo sapiens, UniProt P49888); experiment: Equilibrium binding studies (SULT1E1 intrinsic fluorescence); settings: for Kd: pH 7.4, 25 °C, spread = one SD
T1 construct: E. coli codon-optimized SULT1E1 coding region inserted into the PreScission Protease cleavage site; His/GST/MBP triple tag (N, cleaved yes); made in house; host or cells: E. coli BL21(DE3)
T1 sequence (P49888 1-294): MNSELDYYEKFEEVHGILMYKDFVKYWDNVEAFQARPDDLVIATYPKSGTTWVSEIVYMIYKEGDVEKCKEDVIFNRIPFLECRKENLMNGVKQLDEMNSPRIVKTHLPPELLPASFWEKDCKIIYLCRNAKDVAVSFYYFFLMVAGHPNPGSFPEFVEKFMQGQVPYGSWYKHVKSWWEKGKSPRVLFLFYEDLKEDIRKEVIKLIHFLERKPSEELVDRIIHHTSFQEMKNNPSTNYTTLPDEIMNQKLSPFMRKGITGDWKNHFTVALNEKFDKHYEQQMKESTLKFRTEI
Method: The binding of inhibitors to WT and mutant SULT1E1 was monitored via ligand-induced changes in the intrinsic fluorescence of the enzyme (λex= 290 nm, λem= 340 nm) ([4]). […] C. Titrations were performed in triplicate and the averaged data were least-squares fit to the following quadratic, single-site binding model: Io − ΔI∙(([L]+Etot + Kd) − [([L]+Etot + Kd)^2 − (4∙[L]∙Etot)]^1/2)/2∙Etot, where Io and ΔI represent fluorescent intensity at zero and infinite [L].

[2] = test system: estrogen receptor (ER) activation in Ishikawa cells expressing WT SULT1E1; experiment: cells; type: cell-based, human; settings: for EC50: Homo sapiens, Ishikawa, read-out: Ligand EC50, ER activation
Method: (§1) pcDNA 3.1 constructs harboring either the SULT1E1 WT or double mutant (F75A/F80A) coding regions were generated using Gibson Assembly ([74]). The vectors were linearized using BGIII. Ishikawa cells were grown at 37 °C ± 2 deg. C in growth medium (MEM media containing 10% v/v FBS). At confluence, the cells were washed (3×) with PBS media before coating with an Opti-MEM solution containing a linearized construct (50 ng μg^−1) and lipofectamine (2.5 units ml^−1). After 24 h at 37 °C ± 2 deg. C, cells were washed (3×) with PBS before adding growth medium containing neomycin (400 μg ml^−1) to select transfectants. Selective growth medium was replenished every 48 h until single colonies could be isolated (∼3–6 weeks). Single colonies were transferred using trypsin digest (0.05%) to 12-well plates and grown at 37 °C ± 2 deg. C to confluence for further experimentation and storage.
(§2) Transfected Ishikawa cells were grown at 37 °C ± 2 deg. C to 60 to 70% confluency in MEM containing 10% v/v FBS. Cells were then transferred to 96-well tissue culture plates and grown at 37 °C ± 2 deg. C to 80% confluency in MEM containing 10% v/v charcoal filtered FBS. The plate was then washed with PBS and grown at 37 °C ± 2 deg. C for 24 h in MEM without FBS. Estradiol (0–3.0 μM) and OH-PCB (0–1.0 μM) solubilized in neat DMSO were added and cells were incubated at 37 °C ± 2 deg. C for 5 days. The final concentrations of DMSO were ≤0.10%. Cells were then washed twice with PBS before adding pNpp (5.0 mM) in PBS ([75]). Following incubation with pNpp for 3 h at 25 °C ± 2 deg. C, wells were read at 405 nm using a Synergy HT BioTek Plate Reader.

[3] = test system: estrogen receptor (ER) activation in Ishikawa cells expressing F75A/F80A SULT1E1; experiment: cells; type: cell-based, human; settings: for EC50: Homo sapiens, Ishikawa, read-out: Ligand EC50, ER activation
Method: as §1, §2

[4] = test system: estrogen receptor (ER) activation in (-) SULT1E1 control Ishikawa cells; experiment: Estrogen receptor activation (alkaline phosphatase activity), control strain; type: cell-based; settings: Homo sapiens, read-out: Ligand EC50, ER activation
Method: as §1, §2

SULT1E1 [5] = molecular target: T1, SULT1E1; design: method as in PMID 9556564; settings: E2 as substrate; cited from earlier work
SULT1E1 [6] = molecular target: T1, SULT1E1; design: method as in PMID 10803601; settings: read-out: Ki (SULT1E1 inhibition); cited from earlier work
WT SULT1E1 = molecular target: T2, WT SULT1E1 (Homo sapiens, UniProt P49888); experiment: Initial-rate studies (1-HP sulfonation; OH-PCB inhibition), WT enzyme; type: biochemical; settings: compared with ER-activation EC50 values; read-out: Ki values (SULT1E1)
T2 construct: E. coli codon-optimized SULT1E1 coding region inserted into the PreScission Protease cleavage site; His/GST/MBP triple tag (N, cleaved yes); made in house; host or cells: E. coli BL21(DE3)
T2 sequence (P49888 1-294): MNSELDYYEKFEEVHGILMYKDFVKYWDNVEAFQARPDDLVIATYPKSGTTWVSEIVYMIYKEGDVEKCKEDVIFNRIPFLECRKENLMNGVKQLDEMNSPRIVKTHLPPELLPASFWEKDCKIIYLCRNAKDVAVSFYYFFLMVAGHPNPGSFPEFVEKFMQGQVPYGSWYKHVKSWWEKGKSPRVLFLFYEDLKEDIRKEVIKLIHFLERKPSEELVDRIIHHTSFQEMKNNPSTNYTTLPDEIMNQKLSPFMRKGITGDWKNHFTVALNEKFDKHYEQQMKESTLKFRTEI
Method: (§3) C. Reaction progress was monitored via the fluorescence change associated with 1-HP sulfonation (λex = 325 nm, λem = 370 nm ([51], [52])). Initial rates were measured during conversion to product of ≤5% of the concentration-limiting substrate consumed at the reaction endpoint. Velocities were determined in triplicate. Km and kcat were obtained by (1/v^4)-weighted least-squares fitting of the averaged data in double-reciprocal space (i.e., 1/v versus 1/[S]) ([66], [67]).
(§4) Inhibition studies were performed as described above except: 1-HP was fixed (2.0 μM, 100 × Km), OH-PCBs were added (0.20–20 × Ki), and SULT1E1 was 0.20 nM (active sites). Ki was determined by least-squares fitting to a noncompetitive inhibition model ([66], [67]).

[7] = substrate: C[C@]12CC[C@@H]3c4ccc(O)cc4CC[C@H]3[C@@H]1CC[C@@H]2O; experiment: E2 sulfonation initial-rate assay ([3H]-E2), WT; type: biochemical, human; settings: other: WT, [3H]-E2, PAPS 0.30 mM, pH 7.5, 25 °C, parentheses = one SD
Method: SULT1E1-catalyzed conversion of [^3H]-E2 to [^3H]-E2-sulfate was quantitated as previously described ([68]). […] C. […] The reaction mixture was diluted tenfold with an E2 (10 μM), KPO4 (50 mM), pH 7.5 solution, and brought to pH 7.0 with HCl (6.0 N). The reaction was then mixed (1:1 v/v) with neat chloroform and centrifuged (15,000g, 5.0 min). The aqueous layer was removed, chloroform was extracted twice more, and radioactivity in the aqueous layer was then determined by liquid scintillation counting. Reactions were performed in triplicate and Km and kcat were obtained by (1/v^4)-weighted least-squares fitting of the data in double-reciprocal space (i.e., 1/v versus 1/[S]) ([67]).

[8] = substrate: Oc1ccc2ccc3cccc4ccc1c2c34; experiment: Initial-rate studies (1-HP sulfonation; OH-PCB inhibition), WT enzyme; type: biochemical, human; settings: other: WT, PAPS 0.30 mM, pH 7.5, 25 °C, parentheses = one SD
Method: as §3, §4

**Q.** Which Kd (SULT1E1 [1]; OH-PCB1 10 μM, PAP 300 μM, read-out: Kd, ligand binding to enzyme species E⋅PAP⋅OH-PCB1) does the source give for `C[C@]12CC[C@@H]3c4ccc(O)cc4CC[C@H]3[C@@H]1CC[C@@H]2O` [E2, 17-Beta-estradiol] here?
**A.** Its Kd is 0.98 nM.

**Q.** And the Kd (SULT1E1 [1]; OH-PCB2 7.0 μM (higher partner concentration), PAP 0.30 mM, read-out: Kd, ligand binding to enzyme species E⋅PAP⋅OH-PCB2)?
**A.** Its Kd is 1.1 nM.

**Q.** And the EC50 ([2]; WT cell line, E2 titration, parentheses = one SD)?
**A.** Its EC50 is […].

**Q.** What about the “ER-activation EC50 of E2, fold higher than in the control strain” value ([2]; WT strain versus control strain) of the same molecule?
**A.** Its value is […].

**Q.** What about the EC50 ([3]; F75A/F80A cell line, E2 titration, parentheses = one SD) of the same molecule?
**A.** The EC50 was […].

**Q.** What about the “ER-activation EC50 of E2, fold higher than in the control strain” value ([3]; MT (F75A/F80A) strain versus control strain) of the same molecule?
**A.** Its value is […].

**Q.** And the EC50 ([4]; Control cell line, E2 titration, parentheses = one SD)?
**A.** Its EC50 is […].

**Q.** What does the source list for `Oc1c(Cl)cc(-c2ccc(Cl)c(Cl)c2)cc1Cl` [OH-PCB2, 4-OH-3,3',4',5-tetrachlorobiphenol]?
**A.** Kd (SULT1E1 [1]; E2 4.0 μM (higher partner concentration), PAP 300 μM, read-out: Kd, ligand binding to enzyme species E⋅PAP⋅E2): 0.4 nM; Kd (SULT1E1 [1]; free enzyme E, read-out: Kd, ligand binding to enzyme species E): 7.2 nM; EC50 [2]: 0.87 nM; EC50 [3]: > 1000 nM; EC50 [4]: > 1000 nM; Ki (SULT1E1 [6]): ~0.4 nM; Ki (WT SULT1E1): 0.5 nM

B1: WT SULT1E1 (Homo sapiens) (protein)
chain: MNSELDYYEKFEEVHGILMYKDFVKYWDNVEAFQARPDDLVIATYPKSGTTWVSEIVYMIYKEGDVEKCKEDVIFNRIPFLECRKENLMNGVKQLDEMNSPRIVKTHLPPELLPASFWEKDCKIIYLCRNAKDVAVSFYYFFLMVAGHPNPGSFPEFVEKFMQGQVPYGSWYKHVKSWWEKGKSPRVLFLFYEDLKEDIRKEVIKLIHFLERKPSEELVDRIIHHTSFQEMKNNPSTNYTTLPDEIMNQKLSPFMRKGITGDWKNHFTVALNEKFDKHYEQQMKESTLKFRTEI
notes: E. coli codon-optimized SULT1E1 coding region inserted into the PreScission Protease cleavage site; His/GST/MBP triple tag (N, cleaved yes); made in house; host or cells: E. coli BL21(DE3)
**Q.** Which results are given for B1?
**A.** Km [7]: 3.8 (0.2) ^a nM; kcat [7]: 2.5 s⁻¹; Km [8]: 25 (2.2) ^c nM; kcat [8]: 0.633 s⁻¹
